Publication PMC7822874, “Chemoprotective antimalarials identified through quantitative high-throughput screening of Plasmodium blood and liver stage parasites” (Scientific Reports, 2021)

These compounds were tested on Plasmodium falciparum Dd2 asexual blood stage parasites (assay: microbe, parasite or virus in culture). Details: Plasmodium falciparum, DD2, Erythrocyte, 72 h.
Design: species or system Plasmodium falciparum Dd2 in human erythrocytes; single determination (one 11-point concentration-response curve)

Structure (SMILES) | AC50
CC(C(=O)c1c[nH]c2ccccc12)N1CCN(C(=O)c2ccco2)CC1 (stereo not shown) [MLS000768379-01] | 5.96 µM

Same assay, conditions: Plasmodium falciparum, DD2, Erythrocyte, 72 h; read-out: AC50

Structure (SMILES) | AC50
COc1ccc2c(c1)C=C([C@@H]1C[C@H]3CN(c4ccccc4)C(=O)[C@]34CCCN14)CO2 [MLS000734809-01] | 0.944 µM
Cc1ccccc1CN1C[C@@H]2C[C@@H](c3c[nH]nc3-c3ccccc3)N3CCC[C@@]23C1=O [MLS000735381-01] | 15 µM
Cc1ccc(-n2cc(CNCCc3nc(C)c[nH]3)c(-c3ccc(F)cc3)n2)cc1 [MLS000735387-01] | 15 µM
CC1(c2ccccc2)O[C@@H]2C[C@H]3[C@@H]4CCC5=CC(=O)C=C[C@]5(C)[C@@]4(F)[C@@H](O)C[C@]3(C)[C@]2(C(=O)CO)O1 (stereo partly shown) [MLS000738166-01] | 4.73 µM
Cc1sc2[nH]c(-c3ccccn3)nc(=O)c2c1-c1ccccc1 [MLS000760132-01] | 13.3 µM
COc1ccc(S(=O)(=O)N(C)C)cc1NC(C)C(=O)Nc1cccc(C#N)c1 (stereo not shown) [MLS000761043-01] | 6.68 µM
CC(C)CCNC(=O)c1cc(C(=O)c2cc(F)ccc2O)cn(CCC(C)C)c1=O [MLS000761418-01] | 2.11 µM
CC(C)CN(Cc1cc(=O)oc2cc3c(cc12)CCCC3)CC(C)C [MLS000763058-01] | 15 µM
C#Cc1ccc(C(=O)Nc2ccc(N3CCC(C)CC3)c(C(N)=O)c2)cc1 [MLS000764680-01] | 6.68 µM
Cc1ccc(C)c(-n2c(-c3ccc(Br)cc3)csc2=NC(=O)c2ccccc2F)c1 [MLS000766129-01] | 4.73 µM
C=CCOC(=O)C1=C[C@@H](c2ccc(C(F)(F)F)cc2)[C@H](CCCO)[C@@H](OCC)O1 [MLS000766375-01] | 7.5 µM
CCC(=O)NC(N)=Nc1nc(C)c2cc(C)c(C)cc2n1 [MLS000768400-01] | 9.44 µM
Cn1c(=O)[nH]c2nnc(-c3ccc(Cl)c(Cl)c3)nc2c1=O [MLS000768805-01] | 8.41 µM
Cc1ccccc1Oc1nc(-c2ccccn2)nc2ccccc12 [MLS000769500-01] | 6.68 µM
Fc1ccc(Oc2nc(-c3ccccn3)nc3ccccc23)cc1 [MLS000769507-01] | 13.3 µM
Cc1cccc(Oc2nc(-c3ccncc3)nc3ccccc23)c1 [MLS000769517-01] | 7.5 µM
COc1ccc(Oc2nc(-c3ccccn3)nc3ccccc23)cc1 [MLS000769536-01] | 2.99 µM
CCCOc1ccc(Oc2nc(-c3ccncc3)nc3ccccc23)cc1 [MLS000769540-01] | 4.22 µM
O=C(N/N=C/c1ccc(OCc2ccccc2)cc1)c1ccco1 [MLS000769970-01] | 13.3 µM
Cc1ccc(C)c(NC(=O)CN(C)C(=O)c2cc3ccccc3o2)c1 [MLS000770584-01] | 13.3 µM
O=C(Nc1ccc(Cl)cc1)Nc1nc(-c2ccccc2O)cs1 [MLS000774885-01] | 6.68 µM
CCOC(=O)c1c(CN2CCN(CCO)CC2)n(-c2ccccc2)c2cc(Br)c(O)cc12 [MLS000778151-01] | 5.96 µM
Cc1c(O)c(CN(C)C)cc2c1oc(=O)c1ccccc12 [MLS000778334-01] | 4.22 µM
CCOC(=O)c1c(CN(CC)CC)n(C)c2cc(Br)c(O)cc12 [MLS000778381-01] | 9.44 µM
COc1ccc(C2c3ccc(O)cc3Oc3ncn4nc(-c5ccncc5)nc4c32)cc1OC (stereo not shown) [MLS000778948-01] | 15 µM
CC(=O)Nc1nc2ccccc2n1Cc1ccc(Cl)cc1 [MLS000779302-01] | 8.41 µM

Structure (SMILES) | AC50
CC(C)CNc1nnnc2c1sc1nc(N3CCOCC3)c3c(c12)CCCC3 [MLS000779378-01] | 15 µM
COC(=O)C1=C(C)N(c2ccc(OC)cc2)C(C)=C(C(=O)OC)C1c1ccccc1 [MLS000780021-01] | 9.44 µM
Cn1nc(C(F)(F)F)c(-c2ccc(F)cc2)c1NC(=O)Nc1ccc(F)cc1 [MLS000830769-01] | 1.88 µM
O=C(C1=C[C@H](c2csc3ccccc23)C[C@H](OCCCCO)O1)N1CCN(Cc2ccc3c(c2)OCO3)CC1 [MLS000834451-01] | 13.3 µM
CCO[C@H]1OC(C(=O)N2CCN(Cc3ccc4c(c3)OCO4)CC2)=C[C@@H](c2cn(C(C)=O)c3ccccc23)[C@@H]1CCCO [MLS000834466-01] | 8.41 µM
CCO[C@@H]1OC(C(=O)N2CCN(Cc3ccc4c(c3)OCO4)CC2)=C[C@H](c2cn(C(C)=O)c3ccccc23)[C@H]1CCCO [MLS000834519-01] | 9.44 µM
CC(C)=NOC(=O)c1c(C)noc1-c1snnc1C [MLS000834920-01] | 6.68 µM
CCNc1nc(NC(C)CC)nc(ON=C(C)C)n1 (stereo not shown) [MLS000856336-01] | 8.41 µM
N=c1c2c3c(sc2ncn1Nc1ccccc1)CCC3 [MLS000858994-01] | 3.35 µM
Cc1ccc(-c2nc(NC(=O)c3cc(C(C)(C)C)nn3C)sc2C)cc1Cl [MLS000860650-01] | 10.6 µM
Cc1cc(Nc2cc(Cl)cc(Cl)c2)nc(N)n1 [MLS000861564-01] | 6.68 µM
CN1N=C2c3ccccc3CCC2C1c1ccc(F)cc1 (stereo not shown) [MLS000861852-01] | 5.96 µM
CN(C)CCN1C(=O)c2oc3ccc(Cl)cc3c(=O)c2C1c1cccc(Br)c1 (stereo not shown) [MLS000862131-01] | 0.531 µM
Cc1nn(-c2ccccc2)c2c1C(c1cccnc1)N1C=C(S(=O)(=O)N3CCCCC3)C=CC1=N2 (stereo not shown) [MLS000863363-01] | 15 µM
COC(=O)c1cc(O)cc(OC)c1Oc1cc(C)cc(O)c1C(=O)O [MLS000863583-01] | 4.22 µM
CCOC(=O)c1ccccc1NC1c2ccccc2C(=O)N1C1CCN(C(=O)OCC)CC1 (stereo not shown) [MLS000878310-01] | 13.3 µM
CCN1CCN(c2cc(C)c3cc(NC(=O)c4ccc(Br)o4)ccc3n2)CC1 [MLS000878990-01] | 6.68 µM
COc1cc(O)c(C(CCN2CCCCC2)c2cc(OC)c(OC)c(OC)c2)c(OC)c1 (stereo not shown) [MLS000879476-01] | 2.66 µM
COc1cc(O)c(C(CCN2CCOCC2)c2ccc3c(c2)OCO3)c(OC)c1 (stereo not shown) [MLS000879477-01] | 4.22 µM
COc1cc(O)c(C(CCN2CCCC(C)C2)c2ccc3c(c2)OCO3)c(OC)c1 (stereo not shown) [MLS000879506-01] | 0.531 µM
CCN(CC)CCC(c1ccc(N(C)C)cc1)c1c(O)cc(OC)cc1OC (stereo not shown) [MLS000879508-01] | 3.35 µM
CN(C)CCCNc1ccc(-c2cc(Nc3cccc(Cl)c3)ncn2)cn1 [MLS000911553-01] | 9.44 µM
CCN1CCN(Cc2ccc(NC(=O)c3cc(NC(=O)c4cc(-c5ccc(OC)cc5)n[nH]4)cc(OC)c3)cc2C(F)(F)F)CC1 [MLS000911571-01] | 0.168 µM
CCN1CCN(Cc2ccc(NC(=O)c3cc(NC(=O)C4=NN(c5ccccc5)C(=O)C4)cc(OC)c3)cc2C(F)(F)F)CC1 [MLS000911574-01] | 8.41 µM
CCN1CCN(Cc2ccc(NC(=O)c3cc(NC(=O)c4cncc(-c5ccc(C#N)cc5)c4)cc(OC)c3)cc2C(F)(F)F)CC1 [MLS000911575-01] | 0.596 µM
COc1ccc2nc3oc(C(=O)N4CC(C)CC(C)C4)cc3cc2c1 (stereo not shown) [MLS000912759-01] | 8.41 µM

Structure (SMILES) | AC50
COc1ccccc1-c1cc(C(=O)N2CCN(S(=O)(=O)c3ccc(C)cc3)CC2)[nH]n1 [MLS000924750-01] | 7.5 µM
CC(=O)N1CCc2cc(Br)cc(S(=O)(=O)N3CCCCC3)c21 [MLS000936219-01] | 5.96 µM
COc1ccc(-n2nc(C(=O)NCC(=O)N3CCN(c4ccccc4OC)CC3)c3ccccc3c2=O)cc1OC [MLS000936245-01] | 6.68 µM
Cc1cc([N+](=O)[O-])ccc1NC(=O)COc1nsnc1N1CCOCC1 [MLS000950344-01] | 6.68 µM
CC(C)N1CCN(Cc2ccc(-c3ccccc3)cc2)CC1CCO (stereo not shown) [MLS001000401-01] | 6.68 µM
Cc1c(CN2CCN(CC(C)(C)C)C(CCO)C2)[nH]c2ccccc12 (stereo not shown) [MLS001000590-01] | 9.44 µM
C/C=C/c1cc(CN2CCN(c3ccccc3)CC2)c(O)c(OC)c1 [MLS001002110-01] | 5.96 µM
Cc1ccc(S(=O)(=O)N2CCN(/C(S)=N/Cc3ccc4c(c3)OCO4)CC2)cc1 [MLS001002637-01] | 2.37 µM
COc1ccc(O)c(C(=O)c2cnc3c(c2)c(-c2ccc(F)cc2)c(C#N)c(=O)n3C)c1 [MLS001003111-01] | 5.96 µM
COc1cc(C(=O)OCC(=O)N2CCCCC2C)cc(NC(=O)c2cccs2)c1OC (stereo not shown) [MLS001003405-01] | 0.473 µM
CCOc1ccc(C(C)NC(S)=NC2CCCCC2)cc1OCC (stereo not shown) [MLS001007596-01] | 0.211 µM
O=C(CNC1CC1)Nc1cc(C(F)(F)F)ccc1Cl [MLS001010951-01] | 15 µM
C[n+]1c(-c2ccccc2)cc(-c2ccc(Cl)cc2)cc1-c1ccccc1.[O-][Cl+3]([O-])([O-])O [MLS001018624-01] | 6.68 µM
CCOC(=O)N1CCN(C(=O)c2ccc3c(c2)N(C)C(=O)/C(=C\c2ccc(OCC)c(OC)c2)S3)CC1 [MLS001030648-01] | 6.68 µM
CCc1cc(C(=O)OC)c(NC(=O)CN2CCN(C(=O)c3ccco3)CC2)s1 [MLS001034503-01] | 5.96 µM
COc1ccc(S(=O)(=O)N2CCN(/C(S)=N/CC3CCCO3)CC2)cc1OC (stereo not shown) [MLS001035648-01] | 6.68 µM
O=S(=O)(c1ccc(F)cc1)N1CCN(/C(S)=N/CCc2ccccc2)CC1 [MLS001035761-01] | 5.96 µM
CCCCCCCn1c(NC(=O)CC)nc2ccccc21 [MLS001042192-01] | 16.8 µM
COc1ccc(OC)c(S(=O)(=O)Nc2ccc(O)c3ccccc23)c1 [MLS001045548-01] | 8.41 µM
CCc1cccc(C)c1NC(=O)CN1CCN(S(=O)(=O)c2ccc(C(C)(C)C)cc2)CC1 [MLS001070982-01] | 8.41 µM
Cc1ccc(CNC(=O)c2ccc(N3CCC4(CC3)CC(c3cccc(Br)c3)=NO4)c(NC(=O)c3ccco3)c2)cc1 [MLS001074407-01] | 8.41 µM
CC(C)C[C@@]12C(=O)N(c3cccc(Br)c3)C(=O)N1[C@H](c1ccc(F)cc1)[C@@H]1C(=O)N(C3CCCCC3)C(=O)[C@@H]12 [MLS001074979-01] | 7.5 µM
CCC(Oc1ccccc1)C(=O)Nc1cc(C(F)(F)F)ccc1N1CCOCC1 (stereo not shown) [MLS001099270-01] | 7.5 µM
Cc1ncc(CN2CCC(C(=O)Nc3ccc(-n4cccn4)cc3)CC2)s1 [MLS001101085-01] | 4.73 µM
CCC(C)N(CCNC(=O)c1ccc2c(c1)NC(=O)c1ccccc1S2)C1CCCCC1 (stereo not shown) [MLS001110969-01] | 13.3 µM
Cc1onc(-c2ccc(Cl)cc2)c1-c1ccnn1S(=O)(=O)c1cccc(C(F)(F)F)c1 [MLS001111123-01] | 4.73 µM
